Species: Rattus norvegicus
Assay: Open TG-GATES - Regimen: Daily Repeat
Format: toxicity, organism-based, Sprague-Dawley
Parameters: regimen Daily Repeat, gender Male, age 6 weeks
Conditions: in vivo, po, 10 mg/kg, route gavage, dose level Low; for APTT / Bas / Eos / Fbg / Hb / Ht / Lym / MCH / MCHC / MCV / Mono / Neu / PT / Plat / RBC / Ret / WBC: tissue Blood; for KIDNEY_L / KIDNEY_R / KIDNEY_TOTAL: tissue Kidney; for LIVER: tissue Liver; for A/G / ALP / ALT / AST / BUN / CRE / Ca / Cl / DBIL / GLC / IP / K / LDH / Na / PL / RALB / TBIL / TC / TG / TP / gamma-GTP: tissue Plasma

## Nc1ccc(Cc2ccc(N)cc2)cc1
72 h, time 3 day
  TERMINAL_BW: 237.7 g
  APTT: 13.9 s
  Bas: 0.2%
  Eos: 0.8%
  Fbg: 280.2 mg/dL
  Hb: 13.3 g/dL
  Ht: 38.9%
  Lym: 75%
  MCH: 21.1 pg
  MCHC: 34.2%
  MCV: 61.5 fL
  Mono: 2.4%
  Neu: 20.8%
  PT: 11.9 s
  Plat: 149.6 x10_4/uL
  RBC: 632.8 x10_4/ul
  Ret: 5.9%
  WBC: 114.1 x10_2/uL
  KIDNEY_L: 1 g
  KIDNEY_R: 1 g
  KIDNEY_TOTAL: 1.9 g
  LIVER: 11.4 g
  A/G: 0.8
  ALP: 1752.4 IU/L
  ALT: 41 IU/L
  AST: 68.6 IU/L
  BUN: 16.2 mg/dL
  CRE: 0.2 mg/dL
  Ca: 10.9 mg/dL
  Cl: 106.6 meq/L
  DBIL: 0.018 mg/dL
  GLC: 181.4 mg/dL
  IP: 7.7 mg/dL
  K: 4.1 meq/L
  LDH: 63 IU/L
  Na: 143.6 meq/L
  PL: 146.2 mg/dL
  RALB: 2.7 g/dL
  TBIL: 0.032 mg/dL
  TC: 78.4 mg/dL
  TG: 114.4 mg/dL
  TP: 6 g/dL
  gamma-GTP: 1 IU/L
[…], time 7 day
  TERMINAL_BW: 279.3 g
  APTT: 13.6 s
  Bas: 0.2%
  Eos: 0.4%
  Fbg: 279.2 mg/dL
  Hb: 13.4 g/dL
  Ht: 39.2%
  Lym: 69.8%
  MCH: 20.6 pg
  MCHC: 34.1%
  MCV: 60.6 fL
  Mono: 2.8%
  Neu: 26.2%
  PT: 11.3 s
  Plat: 144.1 x10_4/uL
  RBC: 648 x10_4/ul
  Ret: 5.5%
  WBC: 107.7 x10_2/uL
  KIDNEY_L: 1.1 g
  KIDNEY_R: 1.1 g
  KIDNEY_TOTAL: 2.2 g
  LIVER: 13 g
  A/G: 0.8
  ALP: 1642 IU/L
  ALT: 40.8 IU/L
  AST: 65 IU/L
  BUN: 16.8 mg/dL
  CRE: 0.2 mg/dL
  Ca: 11.4 mg/dL
  Cl: 104.6 meq/L
  DBIL: 0.026 mg/dL
  GLC: 182 mg/dL
  IP: 7.2 mg/dL
  K: 4.2 meq/L
  LDH: 60.6 IU/L
  Na: 143.6 meq/L
  PL: 143.8 mg/dL
  RALB: 2.7 g/dL
  TBIL: 0.07 mg/dL
  TC: 75.4 mg/dL
  TG: 105.6 mg/dL
  TP: 6 g/dL
  gamma-GTP: 1.4 IU/L
[…], time 14 day
  TERMINAL_BW: 335.7 g
  APTT: 15.6 s
  Bas: 0%
  Eos: 0.8%
  Fbg: 283.8 mg/dL
  Hb: 14.1 g/dL
  Ht: 40.9%
  Lym: 78%
  MCH: 20.6 pg
  MCHC: 34.6%
  MCV: 59.5 fL
  Mono: 1.8%
  Neu: 19%
  PT: 11.5 s
  Plat: 146.2 x10_4/uL
  RBC: 687 x10_4/ul
  Ret: 4.3%
  WBC: 125.5 x10_2/uL
  KIDNEY_L: 1.2 g
  KIDNEY_R: 1.2 g
  KIDNEY_TOTAL: 2.3 g
  LIVER: 15.9 g
  A/G: 0.8
  ALP: 1500.2 IU/L
  ALT: 38.8 IU/L
  AST: 64.6 IU/L
  BUN: 17 mg/dL
  CRE: 0.2 mg/dL
  Ca: 11.1 mg/dL
  Cl: 104.8 meq/L
  DBIL: 0.02 mg/dL
  GLC: 174.4 mg/dL
  IP: 7.1 mg/dL
  K: 3.8 meq/L
  LDH: 72.4 IU/L
  Na: 143.2 meq/L
  PL: 146.4 mg/dL
  RALB: 2.7 g/dL
  TBIL: 0.05 mg/dL
  TC: 70.4 mg/dL
  TG: 145 mg/dL
  TP: 6.2 g/dL
  gamma-GTP: 1 IU/L
[…], time 28 day
  TERMINAL_BW: 440.9 g
  APTT: 16.1 s
  Bas: 0.2%
  Eos: 1%
  Fbg: 270.4 mg/dL
  Hb: 14.7 g/dL
  Ht: 41.8%
  Lym: 77.6%
  MCH: 19.6 pg
  MCHC: 35.1%
  MCV: 55.7 fL
  Mono: 1.4%
  Neu: 19.2%
  PT: 11.9 s
  Plat: 114.6 x10_4/uL
  RBC: 750.8 x10_4/ul
  Ret: 2.7%
  WBC: 114 x10_2/uL
  KIDNEY_L: 1.4 g
  KIDNEY_R: 1.4 g
  KIDNEY_TOTAL: 2.8 g
  LIVER: 17.9 g
  A/G: 0.8
  ALP: 1150 IU/L
  ALT: 34.2 IU/L
  AST: 57.6 IU/L
  BUN: 16 mg/dL
  CRE: 0.2 mg/dL
  Ca: 10.9 mg/dL
  Cl: 105.4 meq/L
  DBIL: 0.02 mg/dL
  GLC: 177.6 mg/dL
  IP: 6.5 mg/dL
  K: 4 meq/L
  LDH: 64 IU/L
  Na: 144.4 meq/L
  PL: 133 mg/dL
  RALB: 2.7 g/dL
  TBIL: 0.056 mg/dL
  TC: 67 mg/dL
  TG: 112.4 mg/dL
  TP: 6.4 g/dL
  gamma-GTP: 1 IU/L

From ChEMBL document CHEMBL3885861, “Open TG-GATES”
